Consider 8 compounds from patent US11390900B2, “Antimicrobial cartridges and processes for multiplexed antimicrobial susceptibility testing” (priority 2018, dated 2022).

One test relates to K. pneumoniae 700603. The settings on record: MIC range, K. pneumoniae 700603, Gram negative panel; cited from earlier work.
Test [1] deals with patient sample microbes. Kind of test: AST MIC results for antimicrobial panel 2 (384-well panel from Master Plate vs 96-well panel). The format is cell-based. The settings on record: for MICs obtained from panel made from Master Plate: antimicrobial panel 2, 384 well patient cartridge; for MICs obtained from 96-well Antibiotic Panel: antimicrobial panel 2, standard 96 well AST assay plate. An excerpt:
(§1) An assay setup comprises preparation of patient (target) cartridge by dispensing antimicrobials were from the master cartridge or intermediate serial dilution cartridges into one or more 384 reservoir patient cartridge, each antimicrobial in about 7 serial dilutions in triplicate, and covering the dynamic range of each antimicrobial that is known to be effective and therefore should be reported. The dilution range included the expected minimum inhibitory concentration (MIC) for each antimicrobial. But most importantly, dilution ranges, that is, antimicrobial concentrations beyond the range known to be effective are included in the patient cartridge as per the present invention.
(§2) The remaining reservoirs of the 384 well patient cartridge are utilized for setting up test controls: a no-antimicrobial control (negative control) was included for each antimicrobial compound; and a positive control was included for each antimicrobial set, where a microorganism that is not susceptible to the antimicrobial was added to the well. Each control set was also dispensed at least in duplicate per 384 well cartridge. Additional test controls may be included as deemed necessary by one of skill in the art. Equal amount of a patient sample was dispensed to each of the wells in the cartridge, except in the wells designated for no-sample control, if included. The patient cartridge was ready for determination of susceptibility of microbes from the patient sample to the twelve antimicrobials at the range of concentrations applied, simultaneously. Multiple such plates can be set up in parallel for testing samples from multiple patients, each patient sample per plate. An AST assay was performed on the prepared patient cartridges.
(§3) First, three master plates are loaded by the user onto chilled plate holders (set to 4° C.). These consist of one Broad Spectrum, one Gram-Positive and one Gram-Negative antibiotic plate. Next the bulk reagents and pipette tips are loaded on tube rack. Master and bulk reagent pipette tips and sample dilution tray are reloaded every 12 samples. For every set of tests, up to four Patient Samples in tubes and up to four 384-well Target Plates (Patient plate) are loaded.
(§4) Antibiotics are transferred from Broad Spectrum Master Plate to Target Plate(s). Antibiotics are “stamped” according to FIG. 10A-B. The inoculator tips should be placed back in the same position of the Broad Spectrum Tip Box for use on subsequent target plates, but should only be used for same antibiotics to avoid cross contamination.
(§5) Antimicrobials are transferred from Gram-Positive OR Gram-Negative Master Plate to Target Plate(s) and the antibiotics are “stamped” according to FIG. 11A-B. The inoculator should place tips back in the same position of the correct tip box for use on subsequent target plates. Good care is taken such that any cross contamination is prevented.
(§6) Using new tips from the Sample Tip Box, 50 μL of diluted patient sample are transferred into Target Plate according to Table Four, this is done with a “jet dispense” to avoid cross contamination. After the Patient Sample has been transferred to each well on the Target Plate, the tips should be disposed of to avoid cross contamination. The above steps are repeated for each additional Patient Sample and Target Plate.
(§7) Shown in Table 6 and Table 7, MIC results for antimicrobial panels 1 and 2 respectively using a master cartridge format and a 384 well patient cartridge (column 3) agrees reliably with that run by standard 96 well AST assay plate (right hand column).

In test [2] the test system is patient sample microbes. The settings on record: antimicrobial panel 1, MIC range; cited from earlier work.
Test [3] concerns patient sample microbes. Kind of test: AST MIC results for antimicrobial panel 1 (384-well panel from Master Plate vs 96-well panel). The format is cell-based. The settings on record: for MICs obtained from panel made from Master Plate: antimicrobial panel 1, 384 well patient cartridge; for MICs obtained from 96-well Antibiotic Panel: antimicrobial panel 1, standard 96 well AST assay plate.
Text: as §1, §2, §3, §4, §5, §6, §7

The next test deals with E. faecalis 29212. The following applies: cited from earlier work; for CLSI-Defined QC Range: MIC range; for CLSI-Defined QC Range, screen result: E. faecalis 29212, no growth @ 100 48 hrs (streptomycin), @ 500 24 hrs (gentamicin).
The test system of test [4] is patient sample microbes. The following applies: antimicrobial panel 2, MIC range; cited from earlier work.
In another test the test system is E. coli 25922. The following applies: MIC range, E. coli 25922, Gram negative panel; cited from earlier work.
The test system of a further test is S. aureus 43300. The following applies: growth @ 4; cited from earlier work.
The next test deals with S. aureus 29213. The settings on record: cited from earlier work; for CLSI-Defined QC Range, screen result: S. aureus 29213, no growth @ 0.5/4 (Cli/Ery), @ 4 (cefoxitin), @ 256 (mupirocin).
The next test concerns S. aureus BAA-1708. The following applies: growth @ 256; cited from earlier work.
For a further test, the system named is E. faecalis 51299. The following applies: growth @ 100 (streptomycin), @ 500 (gentamicin); cited from earlier work.
[5] abbreviates: E. faecalis 29212, Gram positive panel.

Where two headings read alike, the source gives them in different places.

In the case of `CC1(C)S[C@@H]2[C@H](NC(=O)[C@H](N)c3ccc(O)cc3)C(=O)N2[C@H]1C(=O)O` [Amoxicillin (alone), Amoxicillin], in the test on K. pneumoniae 700603, the “CLSI-Defined QC Range” value is over 128 µg/mL.
On to `CC1(C)S[C@@H]2[C@H](NC(=O)[C@H](N)c3ccccc3)C(=O)N2[C@H]1C(=O)O` [Ampicillin], for which the “CLSI-Defined QC Range” value in the test with K. pneumoniae 700603 was over 128 µg/mL; with E. faecalis 29212 (setting [5]), 0.5 to 2 µg/mL; in the test on E. coli 25922, 2 to 8 µg/mL. In addition, the results for the MICs obtained from panel made from Master Plate with patient sample microbes [1] and against patient sample microbes [3] were 1 µg/mL and 4 µg/mL, respectively. Moreover, the results for the MICs obtained from 96-well Antibiotic Panel with patient sample microbes [1] and with patient sample microbes [3] were 1 µg/mL and 8 µg/mL, respectively. Also, the figures for the “Quality Control Range” value with patient sample microbes [2] and in the test on patient sample microbes [4] were 2-8 and 0.5-2, respectively.
Consider `C[C@H]1[C@H](NC(=O)/C(=N\OC(C)(C)C(=O)O)c2csc(N)n2)C(=O)N1S(=O)(=O)O` [Aztreonam], for which the “CLSI-Defined QC Range” value with K. pneumoniae 700603 was 8 to 64 µg/mL; with E. coli 25922, 0.06 to 0.25 µg/mL.
As to `CO[C@@]1(NC(=O)Cc2cccs2)C(=O)N2C(C(=O)O)=C(COC(N)=O)CS[C@@H]21` [Cefoxitin], the “CLSI-Defined QC Range, screen result” value in the test with S. aureus 43300 is “Positive (Growth @”; in the test on S. aureus 29213, “Negative (No growth”. Also, the “CLSI-Defined QC Range” value in the test with E. coli 25922 was 2 to 8 µg/mL.
With `CC(C)(O/N=C(\C(=O)N[C@@H]1C(=O)N2C(C(=O)[O-])=C(C[n+]3ccccc3)CS[C@H]12)c1csc(N)n1)C(=O)O` [Ceftazidime], the “CLSI-Defined QC Range” value in the test on K. pneumoniae 700603 is 16 to 64 µg/mL; in the test on S. aureus 29213 (MIC range, S. aureus 29213, Gram negative panel) it was 4 to 16 µg/mL. Further, the MICs obtained from panel made from Master Plate in the test on patient sample microbes [1] is 4 µg/mL; in the test on patient sample microbes [3] it was at most 1 µg/mL. Also, the MICs obtained from 96-well Antibiotic Panel against patient sample microbes [1] amounted to 8 µg/mL; in the test on patient sample microbes [3], 0.25 µg/mL. For the same compound, the “Quality Control Range” value in the test with patient sample microbes [2] is on record as 0.06-0.5; in the test with patient sample microbes [4] it was 4-16.
On to `C/C(=C\C(=O)OCCCCCCCCC(=O)O)C[C@@H]1OC[C@H](C[C@@H]2O[C@H]2[C@@H](C)[C@H](C)O)[C@@H](O)[C@H]1O` [Mupirocin High Level Screen, Mupirocin], for which the “CLSI-Defined QC Range, screen result” value in the test with S. aureus BAA-1708 was “Positive (Growth @”; in the test on S. aureus 29213, “Negative (No growth”.
Take `[H]/N=C(/N)N[C@H]1[C@H](O)[C@@H](O)[C@H](O[C@@H]2O[C@@H](C)[C@](O)(C=O)[C@H]2O[C@@H]2O[C@@H](CO)[C@H](O)[C@@H](O)[C@@H]2NC)[C@@H](N/C(N)=N\[H])[C@@H]1O` [Streptomycin High Level Screen, Streptomycin]: the “CLSI-Defined QC Range, screen result” value was “Positive (Growth @” in the test with E. faecalis 51299 and “Negative (No growth” in the test on E. faecalis 29212.
Take Gentamicin: the “CLSI-Defined QC Range, screen result” value is “Positive (Growth @” in the test on E. faecalis 51299 and “Negative (No growth” with E. faecalis 29212. The “CLSI-Defined QC Range” value in the test on E. faecalis 29212 (E. faecalis 29212, Gram negative panel) is 4 to 16 µg/mL; with E. faecalis 29212 (setting [5]), 4 to 16 µg/mL.
